What was measured:
[1] = Plasma determination of acetoacetate after i.p. injection; format: in vivo, Sprague-Dawley rats; details: 30 min after dosing
Description: (§1) One hundred and seventy-one male Sprague-Dawley rats (weight range 200-250 g) housed on a standard […] were used. Animals had free access to a standard pelleted rat diet and tap water at all times. KTX 0101 (sodium (R)-3-hydroxybuytrate; 100, 300, 600 and 1000 mg/kg body weight) supplied by Sigma (H6501, Lot 111K2618) was administered by intraperitoneal injection. Control animals received the appropriate 0.9% saline vehicle via the same route. Animals were killed by CO2 asphyxiation 0 h, 0.5 h, 1.0 h or 2.0 h after dosing and a terminal blood sample was collected by cardiac puncture. Blood was taken in lithium heparinised tubes and kept on ice prior to centrifugation to yield the plasma samples for analysis.
The assay developed for the determination of acetoacetate was based on previously published clinical assays (Li et al, 1980; McMurray et al, 1984). A different assay buffer was prepared (0.1M Na2PO4 adjusted to pH 7.0 with HCl) in order to shift the equilibrium of the reaction to production of […] and NAD+, Other modifications included the additional use of sodium oxalate at a final assay concentration of 20 mM to inhibit lactate dehydrogenase (LDH) present in the plasma samples. […]
Acetoacetate was measured via the reduction in OD340 nm over a 1 minute period after allowing for the reaction rate to settle.

[2] = Plasma determination of (R)-3-hydroxybutyrate after i.p. injection; format: in vivo, Sprague-Dawley rats
Description: as §1
Commercial clinical assay kits for the determination of D-β-hydroxybutyrate were obtained from Randox Laboratories (Antrim, UK). The kit quantified NADH via the activity of β-hydroxybutyrate dehydrogenase measured as an increase in OD340 nm. An alkaline pH is necessary to drive the reaction equilibrium towards the production of NADH and acetoacetate.
This spectrophotometric assay was modified for application to a 96 well microplate format. The reaction rate was then determined from the increase in OD340 nm over a 1 minute time course, after allowing a necessary period for the reaction rate to settle.

[3] = test system: Fisher rats (frontal cortex, hippocampus, striatum, reticular formation); assay: Tele-Stereo-EEG: electrical power of four brain areas in freely-moving rats after single i.p. dose; format: in vivo, rat
Excerpt: Analysis of brain field potentials (“Tele-Stereo-EEG”) has been proven to be a very sensitive tool for the characterization of drug effects on the central nervous system (Dimpfel et al., 1986). After administration of a centrally active drug, quantitative changes in the brain field potentials can be considered as a characteristic fingerprint of that particular drug. “Fingerprints” of more than 100 compounds have been obtained including 8 established drug categories, e.g. stimulants, sedatives, hallucinogenics, tranquilizers, analgesics, antidepressants, neuroleptics, and narcotics. Different dosages of the same drug cause quantitative changes in electrical power. […] Direct comparison with specific reference drugs, or by discriminant analysis with reference to an extensive fingerprint database, permits the detection of any possible similarities with established drugs. In general, “fingerprints” show prominent differences for drugs prescribed for different indications and are similar for drugs with the same indication (Dimpfel, 2003). Furthermore, the pattern of EEG changes in the rat is a useful tool in predicting possible changes in the EEG power spectrum in humans.
Adult Fisher rats (4-6 month of age and day—night converted, bodyweight approximately 400 g) were implanted with 4 bipolar concentric steel electrodes using a stereotaxic surgical procedure. According to the coordinates of Paxinos and Watson (1982), all four electrodes were placed 3 mm lateral within the left hemisphere. Anterior coordinates were 12.2, 5.7, 9.7 and 3.7 mm for frontal cortex, hippocampus, striatum and reticular formation, respectively. A baseplate carrying the electrodes and a 5-pin-plug was fixed to the skull by dental cement attached to 3 steel screws fixed into the skull. Animals were given two weeks for recovery from the surgical procedure.
EEG signals were recorded from frontal cortex, hippocampus, striatum and reticular formation and were amplified and processed as described by Dimpfel et al. (1986). After automatic artifact rejection, signals were collected in sweeps of 4 s duration and submitted to Fast Fourier transformation. The resulting electrical power spectra were divided into 6 frequency ranges: delta (0.8-4.5 Hz); theta (4.75-6.75 Hz); alpha1 (7.00-9.50 Hz); alpha2 (9.75-12.50 Hz); beta (12.75-18.50 Hz); beta2 (18.75-35.00 Hz). […] In an off-line procedure spectra were averaged to give 15 minute or longer periods for further statistical analysis.
Four doses of KTX 0101 (sodium (R)-3-hydroxybuytrate: 100, 300, 600 and 1000 mg/kg body weight) (supplied by Solvias AG, CH 4002 Basel, Switzerland, batch No: SO-1058.047.1.120) and a vehicle control (0.9% w/v saline) were administered intraperitoneally to a group of 12 animals using a crossover design with at least 3 drug holidays in between the applications. After a pre-drug period of 45 minutes for baseline recording, drug effects were observed continuously for 300 minutes. Changes of electrical power (uV2/W) are expressed as percentage of the 45 minute pre-drug values. Multivariate statistics were calculated according to Ahrens and Läuter (1974).

freely moving rat = details: cited from earlier work; for effect on alpha2 frequencies: Dimpfel et al., 1987

Question: For `C[C@@H](O)CC(=O)[O-].[Na+]` [KTX 0101, sodium (R)-3-hydroxybuytrate], which “plasma concentration of acetoacetate” value ([1]; 600 mg/kg) is on record?
Answer: significantly increased

Question: What about the “plasma concentration of acetoacetate” value ([1]; 1000 mg/kg) of the same compound?
Answer: significantly increased

Question: What about the “plasma concentration of (R)-3-hydroxybutyrate” value ([2]; 100, 300, 600 and 1000 mg/kg ip) of the same compound?
Answer: clear dose-dependent increases

Question: And the “time of highest elevation in plasma (R)-3-hydroxybutyrate” value ([2]; 100-1000 mg/kg ip, first sample)?
Answer: 30 min

Question: And the “time to return of plasma (R)-3-hydroxybutyrate to control values” ([2]; after injection)?
Answer: ≤ 1 h

Question: What about the “duration of EEG effects” value ([3]; 100 mg/kg i.p.) of the same compound?
Answer: 1 to 2 h

Question: And the “statistical significance of EEG changes” value ([3]; 100 mg/kg i.p.)?
Answer: not statistically significant

Question: And the “pattern of change in EEG electrical power” value ([3]; 100 mg/kg i.p., all regions)?
Answer: decrease of electrical power mainly with regard to alpha2

Question: And the “duration of EEG pattern of changes” value ([3]; 300 mg/kg ip)?
Answer: 2 h

Question: And the “pattern of change in EEG electrical power” value ([3]; 300 mg/kg ip)?
Answer: decreases in alpha2 power throughout all brain regions

Question: What about the “statistical significance of EEG changes” value ([3]; 300 mg/kg ip) of the same compound?
Answer: only statistically significant in the reticular formation

Question: What about the “duration of EEG effects” value ([3]; 600 mg/kg ip, generally, except reticular formation) of the same compound?
Answer: 2 h

Question: What about the “duration of decreases in power in the reticular formation” value ([3]; 600 mg/kg ip, reticular formation) of the same compound?
Answer: persisted throughout the third hour

Question: And the “statistical significance of EEG changes” value ([3]; 600 mg/kg ip, incl. first hour in striatum and all 24 variables overall)?
Answer: statistically significant

Question: And the “duration of decreases of power” value ([3]; 1000 mg/kg)?
Answer: lasting into the third hour

Question: What about the “pattern of change in EEG electrical power” value ([3]; 1000 mg/kg) of the same compound?
Answer: more prominent decreases of power

Question: What about the “duration of decreases of power in the reticular formation” value ([3]; 1000 mg/kg, reticular formation, total experimental time) of the same compound?
Answer: 5 h

Question: And the “statistical significance of EEG changes” value ([3]; 1000 mg/kg, even for the 4th hour within the reticular formation)?
Answer: statistically significant

Question: And the “brain regions with significant EEG changes” value ([3]; 2 highest doses (600 and 1000 mg/kg))?
Answer: significant changes were also observed in the frontal cortex, hippocampus and striatum

Question: What about the “similarity of qEEG fingerprint to drug classes by discriminant analysis” value ([3]; 24 variables, 20th to 50th min after single-dose application) of the same compound?
Answer: close proximity to the dopaminergic psychostimulants, d-amphetamine and cocaine

Question: What about the EEG frequencies affected ([3]; 100 to 1000 mg/kg i.p.) of the same compound?
Answer: all frequencies, except for the beta2 range

Question: What about the “period of greatest changes in EEG patterns” value ([3]; after injection) of the same compound?
Answer: 5 to 65 min

Question: What about the “EEG changes, summary” value ([3]; dose range of 300 to 1000 mg/kg ip) of the same compound?
Answer: clear, dose- and time-dependent statistically significant changes

Question: For `Clc1cccc(Cl)c1N=C1NCCN1` [clonidine], which “effect on theta activity” value (freely moving rat; Dimpfel and Schober, 2001) is on record?
Answer: increase

Question: With `Oc1cc2c(cc1O)C(c1ccccc1)CNCC2` (stereo not drawn) [SKF 38393] as the compound, how does the “effect on alpha2 frequencies” value (freely moving rat) read?
Answer: decrease alpha2 frequencies

Question: Which “effect on alpha2 frequencies” value (freely moving rat) does the source give for `N[C@@H](Cc1ccc(O)c(O)c1)C(=O)O` [L-DOPA] here?
Answer: decrease alpha2 frequencies

Question: Which “effect on alpha2 frequencies” value (freely moving rat) does the source give for `CC(N)Cc1ccccc1` (stereo not drawn) [amphetamine] here?
Answer: decrease alpha2 frequencies
